≈ marks a conversion by molar mass, not a printed value.
Legend:
[1] = system: MDA-MB-231 human breast cancer cell line; assay: In vitro cytotoxicity of DOX NPs, PrestoBlue cell viability assay; assay type: cell-based; conditions: MDA-MB-231, 48 h
Method: MDA-MB-231 or DOX-resistant human ovary carcinoma cell line NAR cells were seeded in 48-well plates at a density of 10,000 cells per well. After 24 h, medium was replaced with medium containing DOX NPs or free DOX at various concentrations. After incubation for 4 h, the medium was replaced to drug-free culture medium. After 48 h incubation, cell viability was assessed using PrestoBlue cell viability assay, as described above.
Statistical analysis was performed with GraphPad Prism version 6.05 for Windows (GraphPad Software, San Diego, Calif.). All variables are expressed as mean±SEM. To test the hypothesis that changes in DLS and potential measurements varied over time among the experimental groups, a general linear 2-way repeated-measures (RM) ANOVA model was used. The model included the effects of treatment, time, and treatment-by-time interaction, with Sidak's multiple comparisons test. Viability data was fit using 4-parametric logistic regression curve, where applicable. IC50 values obtained from the intersection of regression line with 50% response. Differences between experimental groups as a function of drug concentration were evaluated by 2-way ANOVA, with Sidak's multiple comparisons test. P<0.05 was considered statistically significant.

[2] = system: CT26 mouse colon carcinoma cells; assay: In vitro cytotoxicity of MTX complexes, PrestoBlue cell viability assay; assay type: cell-based; conditions: CT26, 48 h incubation
Method: CT26 mouse colon carcinoma cells or MDA-MB-231 human breast cancer cell line were seeded in 48-well plates at a density of 10,000 cells per well. After 24 h, medium was replaced with medium containing MTX nano-complexes or free MTX at various concentrations. After 48 h incubation, cell viability was assessed using PrestoBlue cell viability assay (Life Technologies, Carlsbad, Calif.). The assay is based on the live cell's ability to reduce resazurin (non-fluorescent) to resorufin (fluorescent). PrestoBlue working solution was prepared by dilution of PrestoBlue reagent 1:10 in cell culture medium. PrestoBlue working solution was added to the cells for 1 h at 37° C. and 5% CO2. Fluorescent intensity was measured using the Synergy Mx microplate reader (Biotek, Winooski, Vt.) at an excitation wavelength of 560 nm and emission wavelength of 590 nm. The percentage of cell viability was obtained after normalizing the data to untreated cells.
Statistical analysis was performed with GraphPad Prism version 6.05 for Windows (GraphPad Software, San Diego, Calif.). All variables are expressed as mean±SEM. […] Differences between experimental groups as a function of drug concentration were evaluated by 2-way ANOVA, with Sidak's multiple comparisons test. […]

NAR cells = assay: Cellular uptake of DOX by ImageStreamX imaging flow cytometry; assay type: cell-based, human; conditions: 5.8 μg/ml DOX
Method: (§1) Imaging experiments using an imaging flow cytometer (Amnis ImageStreamX, ISX) were performed to quantitatively evaluate the cellular uptake of DOX. Cells were seeded in 6-well culture plates at a cell density of 300,000 cells per well. Twenty-four hours post-seeding, the cells were incubated for 4 h with Free DOX or AlgS-Ca^2+-DOX anionic NPs (5.8 μg/ml DOX, 5 mM Ca^2+, 0.5 μg/ml AlgS), and then medium was replaced to fresh medium for 24 h. For ISX analysis, the cells were harvested (at 4 or 24 h after DOX NP addition) by trypsinization followed by centrifugation at 300 g for 5 min. The cell pellet was resuspended in FACS buffer (PBS containing 2% FBS, v/v) and cells were analyzed using ImageStreamX Mark II (Amnis, Seattle, Wash.). Cell acquisition and analysis were performed using IDEAS Application, version 6.0.

MDA-MB-231 cells [3] = assay: as above; assay type: cell-based, human; conditions: 5.8 μg/ml DOX
Method: as §1

MDA-MB-231 cells [4] = assay: In vivo antitumor activity in MDA-MB-231 tumor-bearing athymic nude mice; conditions: 4 mg/kg i.v., three weekly injections
Method: Female athymic nude mice (six weeks old, body weight=20-23 g) are inoculated to the right cranial trunk region with MDA-MB-231 cells/Matrigel™ 1:1 (v/v) suspension (3×10^6 cells/0.2 mL/animal). Treatment is commenced when tumor size is approximately 100-150 mm^3. Mice are treated intravenously (i.v.) with three weekly injections of 4 mg/kg ([…] 12 mg/kg) of DOX or DOX NPs in saline. NPs were prepared as described above using the following stock solutions: 2 mg/ml DOX, 1M CaCl2, 50 μg/ml AlgS. Prior to injection: DOX (0.5 mg/ml), or DOX NPs were diluted 1:1.5 in saline. Tumor progression is monitored twice a week by caliper measurement and calculated using the formula: Volume=(width)^2×length/2. Mice are observed daily, and body weight is detected as possible signs of toxicity. For histological analysis, mice are euthanized at the end of the treatments. Following excision, tumors are weighted, fixed in 4% formaldehyde, embedded in paraffin, and sectioned into 5-μm slices. Tissue samples are analyzed by H&E staining for histopathological changes, Ki67 staining for cell proliferation and TUNEL assay for apoptotic cell death.

SMILES	IC50 [1]	IC50 [2]	% positive cells (DOX-positive) (NAR cells; 4 h)	Mean Fluorescent intensity (NAR cells; 4 h)	% positive cells (DOX-positive) (NAR cells; 4 h, listed as free DOX)	% positive cells (DOX-positive) (NAR cells; 24 h)	Mean Fluorescent intensity (NAR cells; 24 h)	% positive cells (DOX-positive) (MDA-MB-231 cells [3]; MDA-MB-231, 4 h)	Mean Fluorescent intensity (MDA-MB-231 cells [3]; MDA-MB-231, 4 h)	% positive cells (DOX-positive) (MDA-MB-231 cells [3]; MDA-MB-231, 24 h)	Mean Fluorescent intensity (MDA-MB-231 cells [3]; MDA-MB-231, 24 h)	tumor size compared to controls (MDA-MB-231 cells [4])
CN(Cc1cnc2nc(N)nc(N)c2n1)c1ccc(C(=O)N[C@@H](CCC(=O)O)C(=O)O)cc1 [MTX, Methotrexate]	1.27 µg/mL (≈ 2.79 µM)	0.00696 µg/mL	–	–	–	–	–	–	–	–	–	–
COc1cccc2c1C(=O)c1c(O)c3c(c(O)c1C2=O)C[C@@](O)(C(=O)CO)C[C@@H]3O[C@H]1C[C@H](N)[C@H](O)[C@H](C)O1.Cl [Free DOX, Doxorubicin-HCl]	–	–	71%	40932	~70%	13%	15108	90%	59061	72%	41944	reduced

Reference: US20180353613A1, “ANIONIC NANOPARTICLES FOR USE IN THE DELIVERY OF ANIONIC SMALL MOLECULE DRUGS” (B.G. NEGEV TECHNOLOGIES AND APPLICATIONS LTD, priority 2015, published 2018)
